Key:
Assay type in all cases: functional
NCI-H460 = test: Antiproliferative activity against human NCI-H460 cells assessed as cell viability at 10^-5 M incubated for 48 hrs by sulforhodamine B assay relative to control; conditions: NCI-H460, 48 h, read-out: Activity
UO-31 = test: Antiproliferative activity against human UO31 cells assessed as cell viability at 10^-5 M incubated for 48 hrs by sulforhodamine B assay relative to control; conditions: UO-31, 48 h, read-out: Activity
A549 = test: Antiproliferative activity against human A549 cells assessed as cell viability at 10^-5 M incubated for 48 hrs by sulforhodamine B assay relative to control; conditions: A549, 48 h, read-out: Activity
SR = test: Antiproliferative activity against human SR cells assessed as cell viability at 10^-5 M incubated for 48 hrs by sulforhodamine B assay relative to control; conditions: read-out: Activity
BT-549 = test: Antiproliferative activity against human BT549 cells assessed as cell viability at 10^-5 M incubated for 48 hrs by sulforhodamine B assay relative to control; conditions: BT-549, 48 h, read-out: Activity
MDA-MB-435 = test: Antiproliferative activity against human MDA-MB-435 cells assessed as cell viability at 10^-5 M incubated for 48 hrs by sulforhodamine B assay relative to control; conditions: MDA-MB-435, 48 h, read-out: Activity
ACHN = test: Antiproliferative activity against human ACHN cells assessed as cell viability at 10^-5 M incubated for 48 hrs by sulforhodamine B assay relative to control; conditions: read-out: Activity
DU-145 = test: Antiproliferative activity against human DU145 cells assessed as cell viability at 10^-5 M incubated for 48 hrs by sulforhodamine B assay relative to control; conditions: DU-145, 48 h, read-out: Activity
UACC-257 = test: Antiproliferative activity against human UACC257 cells assessed as cell viability at 10^-5 M incubated for 48 hrs by sulforhodamine B assay relative to control; conditions: UACC-257, 48 h, read-out: Activity
COLO 205 = test: Antiproliferative activity against human COLO205 cells assessed as cell viability at 10^-5 M incubated for 48 hrs by sulforhodamine B assay relative to control; conditions: COLO 205, 48 h, read-out: Activity
SK-OV-3 = test: Antiproliferative activity against human SKOV3 cells assessed as cell viability at 10^-5 M incubated for 48 hrs by sulforhodamine B assay relative to control; conditions: SK-OV-3, 48 h, read-out: Activity
M14 = test: Antiproliferative activity against human M14 cells assessed as cell viability at 10^-5 M incubated for 48 hrs by sulforhodamine B assay relative to control; conditions: M14, 48 h, read-out: Activity
IGROV-1 = test: Antiproliferative activity against human IGROV1 cells assessed as cell viability at 10^-5 M incubated for 48 hrs by sulforhodamine B assay relative to control; conditions: IGROV-1, 48 h, read-out: Activity
K562 = test: Antiproliferative activity against human K562 cells assessed as cell viability at 10^-5 M incubated for 48 hrs by sulforhodamine B assay relative to control; conditions: K562, 48 h, read-out: Activity
SF-268 = test: Antiproliferative activity against human SF268 cells assessed as cell viability at 10^-5 M incubated for 48 hrs by sulforhodamine B assay relative to control; conditions: SF-268, 48 h, read-out: Activity
U-251 = test: Antiproliferative activity against human U251 cells assessed as cell viability at 10^-5 M incubated for 48 hrs by sulforhodamine B assay relative to control; conditions: U-251, 48 h, read-out: Activity
HCT-116 = test: Antiproliferative activity against human HCT116 cells assessed as cell viability at 10^-5 M incubated for 48 hrs by sulforhodamine B assay relative to control; conditions: HCT-116, 48 h, read-out: Activity
HCT-15 = test: Antiproliferative activity against human HCT15 cells assessed as cell viability at 10^-5 M incubated for 48 hrs by sulforhodamine B assay relative to control; conditions: HCT-15, 48 h, read-out: Activity
RPMI-8226 = test: Antiproliferative activity against human RPMI8226 cells assessed as cell viability at 10^-5 M incubated for 48 hrs by sulforhodamine B assay relative to control; conditions: RPMI-8226, 48 h, read-out: Activity
HL-60(TB) = test: Antiproliferative activity against human HL-60(TB) cells assessed as cell viability at 10^-5 M incubated for 48 hrs by sulforhodamine B assay relative to control; conditions: HL-60, 48 h, read-out: Activity
Malme-3M = test: Antiproliferative activity against human MALME-3M cells assessed as cell viability at 10^-5 M incubated for 48 hrs by sulforhodamine B assay relative to control; conditions: read-out: Activity
786-0 = test: Antiproliferative activity against human 786-0 cells assessed as cell viability at 10^-5 M incubated for 48 hrs by sulforhodamine B assay relative to control; conditions: 786-0, 48 h, read-out: Activity
OVCAR-5 = test: Antiproliferative activity against human OVCAR5 cells assessed as cell viability at 10^-5 M incubated for 48 hrs by sulforhodamine B assay relative to control; conditions: OVCAR-5, 48 h, read-out: Activity
OVCAR-3 = test: Antiproliferative activity against human OVCAR3 cells assessed as cell viability at 10^-5 M incubated for 48 hrs by sulforhodamine B assay relative to control; conditions: OVCAR-3, 48 h, read-out: Activity
TK-10 = test: Antiproliferative activity against human TK10 cells assessed as cell viability at 10^-5 M incubated for 48 hrs by sulforhodamine B assay relative to control; conditions: TK-10, 48 h, read-out: Activity
SW-620 = test: Antiproliferative activity against human SW620 cells assessed as cell viability at 10^-5 M incubated for 48 hrs by sulforhodamine B assay relative to control; conditions: SW-620, 48 h, read-out: Activity
SNB-19 = test: Antiproliferative activity against human SNB19 cells assessed as cell viability at 10^-5 M incubated for 48 hrs by sulforhodamine B assay relative to control; conditions: SNB-19, 48 h, read-out: Activity
T47D = test: Antiproliferative activity against human T47D cells assessed as cell viability at 10^-5 M incubated for 48 hrs by sulforhodamine B assay relative to control; conditions: read-out: Activity
HOP-92 = test: Antiproliferative activity against human HOP92 cells assessed as cell viability at 10^-5 M incubated for 48 hrs by sulforhodamine B assay relative to control; conditions: HOP-92, 48 h, read-out: Activity
PC-3 = test: Antiproliferative activity against human PC3 cells assessed as cell viability at 10^-5 M incubated for 48 hrs by sulforhodamine B assay relative to control; conditions: PC-3, 48 h, read-out: Activity
HCC 2998 = test: Antiproliferative activity against human HCC2998 cells assessed as cell viability at 10^-5 M incubated for 48 hrs by sulforhodamine B assay relative to control; conditions: HCC 2998, 48 h, read-out: Activity
CCRF-CEM = test: Antiproliferative activity against human CCRF-CEM cells assessed as cell viability at 10^-5 M incubated for 48 hrs by sulforhodamine B assay relative to control; conditions: read-out: Activity

| Compound | viability at 10 µM (NCI-H460) [%] | viability at 10 µM (UO-31) [%] | viability at 10 µM (A549) [%] | viability at 10 µM (SR) [%] | viability at 10 µM (BT-549) [%] | viability at 10 µM (MDA-MB-435) [%] | viability at 10 µM (ACHN) [%] | viability at 10 µM (DU-145) [%] | viability at 10 µM (UACC-257) [%] | viability at 10 µM (COLO 205) [%] | viability at 10 µM (SK-OV-3) [%] | viability at 10 µM (M14) [%] | viability at 10 µM (IGROV-1) [%] | viability at 10 µM (K562) [%] | viability at 10 µM (SF-268) [%] | viability at 10 µM (U-251) [%] | viability at 10 µM (HCT-116) [%] | viability at 10 µM (HCT-15) [%] | viability at 10 µM (RPMI-8226) [%] | viability at 10 µM (HL-60(TB)) [%] | further results |
| --- | --- | --- | --- | --- | --- | --- | --- | --- | --- | --- | --- | --- | --- | --- | --- | --- | --- | --- | --- | --- | --- |
| CCOc1c(OC)cc2c(c1OCC)C(=O)NC1C2CC(O)C(O)C1O (racemic) | 107 | 81.8 | 94.2 | 90.3 | 103 | 105 | 104 | 110 | 103 | 113 | 105 | 99.1 | 103 | 91.8 | 91.3 | 100 | 100 | 102 | 106 | 86.6 | viability at 10 µM (Malme-3M): 103%; viability at 10 µM (786-0): 103%; viability at 10 µM (OVCAR-5): 108%; viability at 10 µM (OVCAR-3): 103%; viability at 10 µM (TK-10): 97.1%; viability at 10 µM (SW-620): 106%; viability at 10 µM (SNB-19): 103%; viability at 10 µM (T47D): 106%; viability at 10 µM (HOP-92): 84%; viability at 10 µM (PC-3): 93.3%; viability at 10 µM (HCC 2998): 104%; viability at 10 µM (CCRF-CEM): 102% |
| CCOc1c(OC)cc2c(c1O)C(=O)NC1C2CC(O)C(O)C1O (racemic) | 112 | 92.9 | 94.7 | 89.2 | 99.6 | 108 | 103 | 109 | 100 | 115 | 98.1 | 105 | 102 | 91.2 | 102 | 96.7 | 104 | 102 | 103 | 100 | viability at 10 µM (Malme-3M): 102%; viability at 10 µM (786-0): 102%; viability at 10 µM (OVCAR-5): 98.7%; viability at 10 µM (OVCAR-3): 102%; viability at 10 µM (TK-10): 93.9%; viability at 10 µM (SW-620): 107%; viability at 10 µM (SNB-19): 99%; viability at 10 µM (T47D): 92.8%; viability at 10 µM (HOP-92): 85.2%; viability at 10 µM (PC-3): 100%; viability at 10 µM (HCC 2998): 102%; viability at 10 µM (CCRF-CEM): 103% |
| CCOc1cc2c(c(OC)c1OCC)C(=O)NC1C2CC(O)C(O)C1O (racemic) | 102 | 96.1 | 84.3 | 95.8 | 101 | 107 | 104 | 106 | 98.2 | 116 | 103 | 107 | 112 | 98.3 | 95.4 | 95.4 | 95.6 | 99.5 | 101 | 86.8 | viability at 10 µM (Malme-3M): 111%; viability at 10 µM (786-0): 96.1%; viability at 10 µM (OVCAR-5): 109%; viability at 10 µM (OVCAR-3): 102%; viability at 10 µM (TK-10): 100%; viability at 10 µM (SW-620): 109%; viability at 10 µM (SNB-19): 97.7%; viability at 10 µM (T47D): 96.3%; viability at 10 µM (HOP-92): 86.4%; viability at 10 µM (PC-3): 96.9%; viability at 10 µM (HCC 2998): 107%; viability at 10 µM (CCRF-CEM): 96.9% |
| O=C1NC2C(CC(O)C(O)C2O)c2cc3c(c(O)c21)OCCO3 (racemic) | 1.26 | -19.7 | -14.3 | -2.37 | -17.5 | 1.45 | -14.5 | -2.39 | -22.2 | -49 | -10.9 | -45.8 | -16.7 | 1.56 | -0.71 | -14.9 | -3.3 | -11.9 | -28.1 | -18.8 | viability at 10 µM (Malme-3M): -23.8%; viability at 10 µM (786-0): -1.5%; viability at 10 µM (OVCAR-5): 3%; viability at 10 µM (OVCAR-3): -13%; viability at 10 µM (TK-10): -11.9%; viability at 10 µM (SW-620): 4.85%; viability at 10 µM (SNB-19): -10.4%; viability at 10 µM (T47D): -15.8%; viability at 10 µM (HOP-92): -20.1%; viability at 10 µM (PC-3): -9.66%; viability at 10 µM (HCC 2998): -46.2%; viability at 10 µM (CCRF-CEM): -6.07% |
